The IC50 is the point on the concentration scale where inhibition reaches its midpoint. As usually defined, the melting point is the temperature, or range, at which the solid turns liquid.

In the first data set the test system is HSV-1. The data set is described as follows: HSV-1 replication in infected Vero 76 cells, DNA hybridization capture assay. Type of data set: cell-based, herpes simplex virus 1. The note with it: Human alphaherpesvirus 1; HSV-1 (MOI=0.001) in Vero 76 cells, 40–48 hours incubation, HSV DNA hybridization chemiluminescence readout; read-out: IC50. How it is done: Vero 76 cells were maintained in MEM with Earle's salts, L-glutamine, 8% FBS (Hyclone, A-1111-L) and 100 units/mL Penicillin-100 μg/mL Streptomycin. For assay conditions, FBS was reduced to 2%. Cells are seeded into 96-well tissue culture plates at a density of 5×10^4 cells/well after being incubated for 45 min at 37° C. in the presence of HSV-1 or HSV-2 (MOI=0.001). Test compounds are added to the wells and the plates are incubated at 37° C. for 40–48 hours. Cell lysates are prepared as follows: media was removed and replaced with 150 μL/well 0.2 N NaOH with 1% Igepal CA 630 or NP-40. Plates were incubated up to 14 days at room temperature in a humidified chamber to prevent evaporation.
For the detection probe, a gel-purified, digoxigenin-labeled, […] PCR fragment of the HSV UL-15 sequence was utilized. PCR conditions included 0.5 μM primers, 180 μM dTTP, 20 μM dUTP-digoxigenin (Boehringer Mannheim 1558706), 200 μM each of dATP, dCTP, and dGTP, 1×PCR Buffer II (Perkin Elmer), 2.5 mM MgCl2, 0.025 units/μL of AmpliTaq Gold polymerase (Perkin Elmer), and 5 ng of gel-purified HSV DNA per 100 μL. Extension conditions were 10 min at 95° C., followed by 30 cycles of 95° C. for 1 min, 55° C. for 30 sec, and 72° C. for 2 min. The amplification was completed with a 10-min incubation at 72° C. Primers were selected to amplify a 728 bp probe spanning a section of the HSV1 UL 15 open reading frame (nucleotides 249–977). Single-stranded transcripts were purified with Promega M13 Wizard kits. The final product was mixed 1:1 with a mixture of 6 M GuSCN, 100 mM EDTA and 200 μg/mL herring sperm DNA and stored at 4° C.
The capture DNA plasmid (HSV UL13 region in pUC) was linearized by cutting with Xba I, denatured for 15 min at 95° C. and diluted immediately into Reacti-Bind DNA Coating Solution (Pierce, 17250, diluted 1:1 with TE buffer, pH 8) at 1 ng/μL 75 μL/well were added to Corning (#3922 or 9690) white 96-well plates and incubated at room temperature for at least 4 hrs before washing twice with 300 μL/well 0.2×SSC/0.05% Tween-20 (SSC/T buffer). The plates were then incubated overnight at room temperature with 150 μL/well 0.2 N NaOH, 1% IGEPAL and 10 μg/mL herring sperm DNA.
Twenty-seven (27) μL of cell lysate was combined with 45 μL of hybridization solution (final concentration:3M GuSCN, 50 mM EDTA, 100 μg/ml salmon sperm DNA, 5× Denhardt's solution, 0.25×APE, and 5 ng of the digoxigenin-labeled detection probe). APE is 1.5 M NH4-acetate, 0.15 M NH4H2 phosphate, and 5 mM EDTA adjusted to pH 6.0. Mineral oil (50 μL) was added to prevent evaporation. The hybridization plates were incubated at 95° C. for 10 minutes to denature the DNA, then incubated at 42° C. overnight. The wells were washed 6× with 300 μL/well SSC/T buffer then incubated with 75 μL/well anti-digoxigenin-HRP-conjugated antibody (Boehringer Mannheim 1207733, 1:5000 in TE) for 30 min at room temperature. The wells were washed 6× with 300 μL/well with PBS/0.05% Tween-20 before 75 μL/well SuperSignal LBA substrate (Pierce) was added. The plates were incubated at room temperature for 30 minutes and chemiluminescence was measured in a Wallac Victor reader.
The following results were obtained for HSV-1.
For the compound `O=C(NCCCn1ccnc1)c1ccc2c(-c3ccnc(NC4CCCC4)n3)c(-c3ccc(F)cc3)nn2c1NC1CCCC1` [Example 9, 7-(Cyclopentylamino)-3-[2-(cyclopentylamino)-4-pyrimidinyl]-2-(4-fluorophenyl)-N-[3-(1H-imidazol-1-yl)propyl]pyrazolo[1,5-a]pyridine-6-carboxamide], the IC50 was 500 nM.

For `Fc1ccc(-c2nn3c(NC4CC4)cc(Cl)cc3c2-c2ccnc(NC3CCCC3)n2)cc1` [Example 22, 5-Chloro-3-[2-(cyclopentylamino)-4-pyrimidinyl]-N-cyclopropyl-2-(4-fluorophenyl)pyrazolo[1,5-a]pyridin-7-amine], the IC50 was 200 nM.

On to `Cc1cccc(-c2nn3c(NC4CCCC4)cc(Cl)cc3c2-c2ccnc(NC3CC3)n2)c1` [Example 21, 5-Chloro-N-cyclopentyl-3-[2-(cyclopropylamino)pyrimidin-4-yl]-2-(3-methylphenyl)pyrazolo[1,5-a]pyridin-7-amine], for which the 50% inhibitory concentration (IC50) came out at 600 nM.

`Fc1ccc(-c2nn3c(NC4CCCC4)c(Cl)ccc3c2-c2ccnc(NC3CCCC3)n2)cc1` [Example 44, 6-Chloro-N-cyclopentyl-3-[2-(cyclopentylamino)pyrimidin-4-yl]-2-(4-fluorophenyl)pyrazolo[1,5-a]pyridin-7-amine]: the IC50 came out at 900 nM.

Take `Cc1cccc(-c2nn3c(NC4CCCC4)cc(Cl)cc3c2-c2ccnc(NC3CCCC3)n2)c1` [Example 19, 5-Chloro-N-cyclopentyl-3-[2-(cyclopentylamino)pyrimidin-4-yl]-2-(3-methylphenyl)pyrazolo[1,5-a]pyridin-7-amine]: the 50% inhibitory concentration (IC50) was 200 nM.

For `Fc1ccc(-c2nn3c(N4CCCCC4)cc(Cl)cc3c2-c2ccnc(NC3CCCC3)n2)cc1` [Example 24, 4-[5-Chloro-2-(4-fluorophenyl)-7-(1-piperidinyl)pyrazolo[1,5-a]pyridin-3-yl]-N-cyclopentyl-2-pyrimidinamine], the IC50 came out at 120 nM.

On to `OCc1ccc2c(-c3ccnc(NC4CCCC4)n3)c(-c3ccc(F)cc3)nn2c1NC1CCCC1` [Example 11, [7-(Cyclopentylamino)-3-[2-(cyclopentylamino)-4-pyrimidinyl]-2-(4-fluorophenyl)pyrazolo[1,5-a]pyridin-6-yl]methanol], for which the IC50 amounted to 970 nM.

Consider `Fc1ccc(-c2nn3c(N4CCOCC4)cc(Cl)cc3c2-c2ccnc(NC3CCCC3)n2)cc1` [Example 25, 4-[5-Chloro-2-(4-fluorophenyl)-7-(4-morpholinyl)pyrazolo[1,5-a]pyridin-3-yl]-N-cyclopentyl-2-pyrimidinamine], for which the IC50 was 190 nM.

`Clc1cc(NC2CCCC2)n2nc(-c3ccc(OCC4CC4)cc3)c(-c3ccnc(NC4CC4)n3)c2c1` [Example 40, N-(4-{5-Chloro-7-(cyclopentylamino)-2-[4-(cyclopropyl-methoxy)phenyl]pyrazolo[1,5-a]pyridin-3-yl}-2-pyrimidinyl)-N-cyclopropylamine]: the IC50 was found to be 1300 nM.

As to `O=C(O)c1ccc2c(-c3ccnc(NC4CCCC4)n3)c(-c3ccc(F)cc3)nn2c1NC1CCCC1` [Example 4, 7-(Cyclopentylamino)-3-[2-(cyclopentylamino)-4-pyrimidinyl]-2-(4-fluorophenyl)pyrazolo[1,5-a]pyridine-6-carboxylic acid], the concentration for half-maximal inhibition (IC50) is 500 nM.

Turning to `COc1cc(NC2CCCC2)n2nc(-c3ccc(F)cc3)c(-c3ccnc(NC4CCCC4)n3)c2c1` [Example 45, N-Cyclopentyl-3-[2-(cyclopentylamino)-4-pyrimidinyl]-2-(4-fluorophenyl)-5-methoxypyrazolo[1,5-a]pyridin-7-amine], the IC50 turned out to be 150 nM.

Consider `COc1ccc(-c2nn3c(Cl)cc(Cl)cc3c2-c2ccnc(SC)n2)cc1` [Example 35, 5,7-dichloro-2-(4-methoxyphenyl)-3-[2-(methylthio)pyrimidin-4-yl]pyrazolo[1,5-a]pyridine], for which the IC50 was over 40000 nM.

Turning to `CN(C)C(=O)c1ccc2c(-c3ccnc(NC4CCCC4)n3)c(-c3ccc(F)cc3)nn2c1NC1CCCC1` [Example 6, 7-(Cyclopentylamino)-3-[2-(cyclopentylamino)-4-pyrimidinyl]-2-(4-fluorophenyl)-N,N-dimethylpyrazolo[1,5-a]pyridine-6-carboxamide], the concentration for half-maximal inhibition (IC50) came to 4000 nM.

As for `Fc1ccc(-c2nn3c(NC4CCCC4)c(C(F)(F)F)ccc3c2-c2ccnc(NC3CCCC3)n2)cc1` [Example 2, N-Cyclopentyl-3-[2-(cyclopentylamino)-4-pyrimidinyl]-2-(4-fluorophenyl)-6-(trifluoromethyl)pyrazolo[1,5-a]pyridin-7-amine], the IC50 was determined as 3300 nM.

On to `Fc1ccc(-c2nn3c(NC4CCCC4)cc(NC4CCCC4)cc3c2-c2ccnc(NC3CCCC3)n2)cc1` [Example 14, N^5,N^7-Dicyclopentyl-3-[2-(cyclopentylamino)-4-pyrimidinyl]-2-(4-fluorophenyl)pyrazolo[1,5-a]pyridine-5,7-diamine], for which the IC50 is 240 nM.

Turning to `Clc1cccc(-c2nn3c(Cl)cc(Cl)cc3c2-c2ccnc(NC3CCCC3)n2)c1` [Example 28, N-cyclopentyl-4-[5,7-dichloro-2-(3-chlorophenyl)pyrazolo[1,5-a]pyridin-3-yl]-2-pyrimidinamine], the IC50 is 3500 nM.

Turning to `Oc1ccc(-c2nn3c(NC4CCCC4)cc(Cl)cc3c2-c2ccnc(NC3CCCC3)n2)cc1` [Example 33, 4-[5-Chloro-3-[2-(cyclopentylamino)-4-pyrimidinyl]-7-(cyclopentylamino)pyrazolo[1,5-a]pyridin-2-yl]phenol], the IC50 stood at 800 nM.

Take `Fc1ccc(-c2nn3c(Cl)cc(Cl)cc3c2-c2ccnc(NC3CCCC3)n2)cc1` [Example 12, N-Cyclopentyl-4-[5,7-dichloro-2-(4-fluorophenyl)pyrazolo[1,5-a]pyridin-3-yl]-2-pyrimidinamine]: the IC50 worked out at 7000 nM.

Turning to `O=C(NO)c1ccc2c(-c3ccnc(NC4CCCC4)n3)c(-c3ccc(F)cc3)nn2c1NC1CCCC1` [Example 7, 7-(Cyclopentylamino)-3-[2-(cyclopentylamino)-4-pyrimidinyl]-2-(4-fluorophenyl)-N-hydroxypyrazolo[1,5-a]pyridine-6-carboxamide], the IC50 is 1000 nM.

As to `CC(C)Nc1cc(Cl)cc2c(-c3ccnc(NC4CCCC4)n3)c(-c3ccc(F)cc3)nn12` [Example 15, 5-Chloro-3-[2-(cyclopentylamino)-4-pyrimidinyl]-2-(4-fluorophenyl)-N-isopropylpyrazolo[1,5-a]pyridin-7-amine], the IC50 worked out at 1450 nM.

In the case of `Clc1cccc(-c2nn3c(NC4CCCC4)cc(Cl)cc3c2-c2ccnc(NC3CCCC3)n2)c1` [Example 29, N-{4-[5-chloro-2-(3-chlorophenyl)-7-(cyclopentylamino)pyrazolo[1,5-a]pyridin-3-yl]-2-pyrimidinyl}-N-cyclopentylamine], the IC50 was 350 nM.

Consider `Fc1ccc(-c2nn3c(Cl)cc(NC4CCCC4)cc3c2-c2ccnc(NC3CCCC3)n2)cc1` [Example 41, 7-Chloro-N-cyclopentyl-3-[2-(cyclopentylamino)pyrimidin-4-yl]-2-(4-fluorophenyl)pyrazolo[1,5-a]pyridin-5-amine], for which the IC50 was 1300 nM.

With `Clc1cc(NC2CCCC2)n2nc(-c3ccc(OCC4CC4)cc3)c(-c3ccnc(NC4CCCC4)n3)c2c1` [Example 34, 5-Chloro-3-[2-(cyclopentylamino)-4-pyrimidinyl]-N-cyclopentyl-2-[4-(cyclopropylmethoxy)phenyl]pyrazolo[1,5-a]pyridin-7-amine], the IC50 came to 120 nM.

Test system in a further data set: not given
Test: not given
Settings: not given
For `COc1cc(NC2CCCC2)n2nc(-c3ccc(F)cc3)c(-c3ccnc(NC4CCCC4)n3)c2c1` [Example 45, N-Cyclopentyl-3-[2-(cyclopentylamino)-4-pyrimidinyl]-2-(4-fluorophenyl)-5-methoxypyrazolo[1,5-a]pyridin-7-amine], the melting point lay in the range of 167 to 169 °C.

Values taken from patent US7030134B2, “Pyrazolopyridinyl pyridine and pyrimidine therapeutic compounds” (SmithKline Beecham Corporation, priority 2001, dated 2006).
